Measurements reported in ChEMBL document CHEMBL1177883, “5D-QSAR for spirocyclic sigma1 receptor ligands by Quasar receptor surface modeling” (Eur J Med Chem, 2010).

biological target: Sigma non-opioid intracellular receptor 1 (Cavia porcellus, UniProt Q60492); assay: Displacement of [3H](+)-pentazocine from sigma 1 receptor in guinea pig brain membrane; format: cell membranes
Sequence (Q60492 whole entry): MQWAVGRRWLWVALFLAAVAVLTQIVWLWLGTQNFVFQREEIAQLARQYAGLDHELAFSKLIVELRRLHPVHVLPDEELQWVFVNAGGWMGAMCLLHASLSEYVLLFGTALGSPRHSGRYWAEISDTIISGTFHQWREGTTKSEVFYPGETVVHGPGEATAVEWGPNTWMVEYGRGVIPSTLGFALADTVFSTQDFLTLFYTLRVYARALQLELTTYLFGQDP

SMILES	Ki [µM]
CO[C@H]1Cc2c(cnn2-c2ccccc2)C2(CCN(Cc3ccccc3)CC2)O1	0.0015
CC(=O)C[C@@H]1Cc2sccc2C2(CCN(Cc3ccccc3)CC2)O1	0.0094
CO[C@H]1Cc2sccc2C2(CCN(Cc3ccccc3)CC2)O1	0.00032
CO[C@H]1Cc2sccc2C2(CCN(CCc3ccccc3)CC2)O1	0.0059
CO[C@H]1Cc2sccc2C2(CCN(CCCCc3ccccc3)CC2)O1	0.0077
CO[C@H]1Cc2sccc2C2(CCN(CC3CCCCC3)CC2)O1	0.0003
OCC[C@H]1Cc2ccccc2C2(CCN(CCCc3ccccc3)CC2)O1	0.015
OCC[C@@H]1Cc2ccccc2C2(CCN(CCCc3ccccc3)CC2)O1	0.068
O[C@H]1Cc2ccccc2C2(CCN(CCc3ccccc3)CC2)O1	0.044
CCOC(=O)C[C@H]1Cc2ccccc2C2(CCN(Cc3ccccc3)CC2)O1	0.183
CO[C@H]1CCc2ccccc2C2(CCN(Cc3ccccc3)CC2)O1	0.0026
COC(=O)c1cc2c(s1)C[C@H](OC)OC21CCN(Cc2ccccc2)CC1	0.0109
Cn1ncc2c1CCOC21CCN(CCCc2ccccc2)CC1	0.017
c1ccc(CCCN2CCC3(CC2)OCCc2c3cnn2-c2ccccc2)cc1	0.00081
CO[C@H]1Cc2sc(-c3ccccc3)cc2C2(CCN(Cc3ccco3)CC2)O1	0.0022
CO[C@H]1Cc2c(cnn2-c2ccccc2)C2(CCN(CC(C)C)CC2)O1	0.0063
CC(=O)C[C@H]1Cc2sccc2C2(CCN(Cc3ccccc3)CC2)O1	0.012
CO[C@H]1Cc2sccc2C2(CCN(CC=C(C)C)CC2)O1	0.001
CO[C@H]1Cc2sc(C(=O)c3ccccc3)cc2C2(CCN(Cc3ccccc3)CC2)O1	0.0037

SMILES	Ki [µM]
CCC[C@H]1OC2(CCN(Cc3ccccc3)CC2)c2ccccc21	0.0032
CO[C@H]1Cc2c(cnn2-c2ccccc2)C2(CCN(C(C)C)CC2)O1	0.21
O[C@H]1OC2(CCN(CCc3ccccc3)CC2)c2ccccc21	0.109
CO[C@H]1Cc2c(cnn2C)C2(CCN(Cc3ccccc3)CC2)O1	0.021
CCCN1CCC2(CC1)O[C@@H](OC)Cc1c2cnn1C	2.98
CC(C)=CCN1CCC2(CC1)OCCc1c2cnn1C	0.014
OCC[C@H]1Cc2ccccc2C2(CCN(CC3CCCCC3)CC2)O1	0.01
CO[C@H]1Cc2ccccc2C2(CCN(C)CC2)O1	4.4
CO[C@H]1Cc2sc(CN(C)C)cc2C2(CCN(Cc3ccccc3)CC2)O1	0.017
OCC[C@H]1Cc2ccccc2C2(CCN(Cc3ccccc3)CC2)O1	0.01
OCC[C@@H]1Cc2ccccc2C2(CCN(Cc3ccccc3)CC2)O1	0.048
CCCN1CCC2(CC1)O[C@@H](OC)Cc1c2cnn1-c1ccccc1	0.033
CCOC(=O)C[C@H]1OC2(CCN(Cc3ccccc3)CC2)c2ccccc21	0.015
CO[C@H]1Cc2ccccc2C2(CCN(CCCCc3ccccc3)CC2)O1	0.01
OCC[C@@H]1Cc2ccccc2C2(CCN(CC3CCCCC3)CC2)O1	0.009
CO[C@@H]1OC2(CCN(Cc3ccccc3)CC2)c2cnn(-c3ccccc3)c21	0.00049
CO[C@@H]1Cc2ccccc2[C@@]2(CCCN(Cc3ccccc3)C2)O1 (racemic)	1.72
CO[C@@H]1Cc2ccccc2[C@@]2(CCCN(CCc3ccccc3)C2)O1 (racemic)	0.47
CCCCN1CCC[C@@]2(C1)O[C@H](OC)Cc1ccccc12 (racemic)	1.29
